Test results taken from US5866576A, “Epoxide-containing compounds” (Cell Therapeutics, Inc., priority 1997, dated 1999).

Legend:
Balb/3T3 cells [1] = assay: PDGF-stimulated Balb/3T3 cell proliferation; assay type: cell-based; conditions: FIGS. 8A (1409), 8B (1560); PDGF/BB
Experimental: Balb/3T3 cells respond vigorously to PDGF stimulation, and are useful in vitro models for further study of PDGF-induced proliferation. Disregulated PDGF-proliferative response has been linked to a variety of diseases, including, e.g., restenosis, atherosclerosis, fibrosis, and tumor cell angiogenesis.
Balb/3T3 cells were maintained in exponential growth. The cells were removed from a flask with EDTA and plated into 96 well plates at 3000 cells/well. After 48 hours, the media was removed, the cells washed once with PBS and serum free media and the cultures allowed to rest for a 24 hour period. Inventive compounds were added to the wells containing media and Balb/3T3 cells one hour prior to incubation with PDGF/BB, added at constant 10 μM concentrations along with 1 μ Ci 3-H-thymidine dye. Cells were subsequently incubated for 18-24 hours, harvested, and incorporated thymidine assessed on a Packard Topcount to determine degree of cell proliferation. Data obtained in this assay was used to determine experimental 50% inhibition concentrations for the inventive compounds tested.

Balb/3T3 cells [2] = assay: Balb/3T3 cytotoxicity assay (BCECF-AM); assay type: cell-based; conditions: FIGS. 8C, 8D
Experimental: In conjuction with the Balb/3T3 proliferation assay conducted above, a Balb/3T3 cytotoxicity assay was conducted to determine that the inhibition on proliferation was not due to cytotoxic effects. This assay is similar to the assay decribed above except tritiated thymidine was not added and after 18-24 hours incubation with PDGF/BB and a lOuM solution of 2,7-bis-(2-carboxyethyl)-5(and-6)carboxyflouresceinacetoxymethyl ester (BCECF-AM) was added for 30 minutes at 37° C. (BCECF is a compound that when cleaved by esterases, yields a fluorescent product in viable cells only, therefore providing a measure of viable cell numbers). Following sufficient incubation, BCECF is replaced with PBS and the plate examined with flourescence in a Millipore "cytofluor." The data is compiled and plotted.

[3] = system: LPS-induced TNF release in whole human blood; assay: LPS-induced TNF release in whole human blood (FIG. 14); assay type: cell-based; conditions: LPS 10 ng/ml, read-out: inhibition of TNF-α induction
Experimental: This example illustrates inhibitive effects of the inventive compounds on LPS-induced TNF release. Data collected is reported as percent inhibition of LPS induced TNF release in whole human blood as compared with control values of TNF release.
In this assay, whole blood was collected from a healthy human donor into Vacutainer tubes containing ACD citrate anti-coagulant. Compounds to be tested were diluted in RPMI medium and added (5 μl) to tubes containing whole blood (225 μl). The tubes were mixed and incubated for a maximum of 1 hour at 37° C. LPS Salmonella abortus equi was diluted in RPMI and added to samples at 20 μl per tube (10 ng/ml final concentration). The prepared tubes were mixed and incubated for 4-6 hours at 37° C. The reaction was terminated by adding 750 μl of RPMI to each tube, then centrifuged to remove cells. Supernatants are collected and stored overnight at 4° C. Supernatant samples are assayed for TNF release using commercial immunoassay kits.

thymocytes [4] = assay: IL-2 (ConA co-stimulated) induced proliferation of thymocytes; assay type: cell-based, mice; conditions: Mus musculus, Thymocyte, 96 h; Table II; ConA 0.25 ug/ml / IL2 20 ng/ml, 4 days
Experimental: This example illustrates the effects of inventive compounds nos. 1105, 1114, 1413, 1439, 1594, 2518, 2548R, 2548S, 2562 and 3503 as effective inhibitors of IL-2 induced proliferation of thymocytes. Single cell suspensions of thymus gland cells obtained from 4-6 week old mice were prepared. Two-hundred thousand cells were plated into individual wells of flat-bottom 96-well plates in RPMI-1640-10% FCS medium. The invention compounds were then added to the wells at varying concentrations and the cells incubated for 1-2 hours at 37° C.
Following this pre-incubation a mixture of Concanavalin A (ConA) and Interleukin-2 (IL2) was added to the experimental wells at a final concentration of (0.25 ug/ml ConA)/(20 ng/ml IL2). Appropriate positive and negative controls were set up on each plate. Each variable was set up in quadruplicate.
The plates were incubated for 4 days at 37° C. in a humidified CO2 incubator. On day 4 the wells were pulsed with 1 μCi of tritiated thymidine(3H-TdR) and the plates incubated for an additional 4 hours. The plates were then harvested and the incorporation of 3H-TdR was determined in a liquid scintillation counter. From the CPM obtained from each experimental well an IC-50 for each inventive compound tested was determined. Therefore, a lower reported IC-50 value is indicative of greater inhibition of IL-2-induced proliferation of thymocytes. Table II illustrates IC-50 values (in μM) for inventive compounds inhibiting proliferation at very low concentrations of compound.

[5] = system: normal human bone marrow stromal cells (MSC); assay: human bone marrow stromal cell (MSC) proliferation in response to PDGF BB and IL-1α; assay type: cell-based; conditions: Table III, PDGF BB 50 ng/ml and IL-1α 10 ng/ml
Experimental: This example illustrates the effects of inventive compounds nos. 1114, 1413, 1560, 1565, 1594, 2518, 2548R, 2548S and 3503 as effective inhibitors of normal human bone marrow stromal cells (MSC) proliferation in response to Platelet Derived Growth Factor BB (PDGF B) and IL-1α (50 and 10 ng/ml, respectively).
MSC were obtained and malintained in exponential growth, released from a growth plate with trypsin and plated into 96 well tissue culture plates in the presence of Fibroblast Growth Factor (FGFβ) for 48 hours. Growth media were removed and the cells were washed once with serum free media. The cells were then incubated 20-24 hours in serum free media.
After incubation, inventive compounds were added to the cells at the appropriate concentration and then the cells again incubated for 1 hour. PDGF B and IL-1α were added to the cells along with 3H-thymidine and the cells again incubated for an additional 24 hours.
After 24 hours of incubation, the cells were then harvested to assess incorporation of ^3 H-thymidine into DNA (proliferation). From each harvested cell culture, an IC-50 for each inventive compound tested was determined. Therefore, a lower reported IC-50 value is indicatilve of greater activity of the invention compounds in inhibiting MSC proliferation. Table III illustrates IC-50 values (in μM) for invention compounds inhibiting MSC proliferation at very low concentrations of compound.

[6] = system: PBMC (peripheral blood mononuclear cells); assay: two-way mixed lymphocyte reaction, PBMC (FIG. 1); assay type: cell-based
Description: This example illustrates the effects of inventive compounds nos. 1605, 1808 and 1906 as immune modulators in a mixed lymphocyte reaction. […] 1605, 1808 and 1906.

thymocytes [7] = assay: thymocyte proliferation co-stimulated with Con A and/or IL-1α (FIG. 2); assay type: cell-based, Balb/C mice; conditions: three dose levels
Experimental: The thymocytes were obtained from normal female Balb/C mice and stimulated with Concanavalin A (Con A) and/or interleukin-1 alpha (L-1α). Drugs were added to the cell cultures two hours before activation with Con A and/or IL-1α.
This example illustrates a comparison of three dose levels of inventive compounds nos. 1808 and 1906 and no drug control to inhibit thymocyte proliferation. The thymocytes were obtained from normal female Balb/C mice and co-stimulated with Concanavalin A (Con A) and/or IL-1α (interleukin-1 alpha). The thymuses were dissociated and plated into 96-well plates at a density of 2×10^5 cells/well. Dilutions of Con A and/or IL-1α were added to the wells and the cells were incubated for 4 days at 37° C. Drugs were added to the cell cultures two hours before activation with Con A and/or IL-1α. On day 4, the cells were pulsed with tritiated thymidine and allowed to incubate an additional 4 hrs. The cells were harvested and counted.

Ramos B-cell tumor line = assay: B-cell proliferation, Ramos line stimulated with anti-mu or PMA (FIG. 3); assay type: cell-based, human; conditions: 250 μM, anti-mu or PMA (5 nM)
Experimental: A Ramos […] tumor line was treated with 250 μM 1808 or 1605 for one hour prior to stimulation of proliferation with anti-mu antibody or phorbol myristic acid (PMA, 5 nM). One day later, proliferation was measured with tritiated thymidine.
This example illustrates a comparison of inventive compounds nos. 1605 and 1808 for inhibition of B-cell proliferation. A Ramos B-cell tumor line was treated with 250 μM 1808 or 1605 for one hour prior to stimulation of proliferation with anti-mu antibody or PMA (5 nM). One day later, proliferation was measured with tritiated thymidine.

human stromal cells = assay: PDGF-induced proliferation of human stromal cells (FIG. 4); assay type: cell-based; conditions: PDGF-BB 50 ng/ml
Experimental: Human stromal cells were starved in serum-free media for 24 hours and then stimulated with 50 ng/ml of PDGF-BB. The drugs were added at various indicated concentrations one hour prior to PDGF stimulation. Tritiated thymidine was added for 24 hrs at the time of PDGF stimulation to measure cellular proliferation. Background counts were approximately 5% of control levels.
This example illustrates a comparison of inventive compounds nos. 1605, 1808 and 1906 on PDGF-induced (platelet derived growth factor) proliferation of human stromal cells. Human stromal cells were starved in serum-free media for 24 hours and then stimulated with 50 ng/ml of PDGF-BB. The drugs were added at various indicated concentrations one hour prior to PDGF stimulation. Tritiated thymidine was added for 24 hours at the time of PDGF stimulation to measure cellular proliferation. Background counts were approximately 5% of control levels.

[8] = system: U937 cells; human umbilical vein endothelial cells (HUVEC); assay: adhesion of U937 cells to TNF-α activated HUVEC (FIG. 5); assay type: cell-based; conditions: TNF-α 20 ng/ml, 12 hours
Experimental: HUVEC cells were activated with 20 ng/ml of TNF for 12 hrs. Drug was added to each culture (except for controls) one hour prior to adding TNF. U937 cells, preloaded with the fluorescent dye BCECF, were added to each culture well and then washed. Cell adhesion was determined on a fluorescence plate reader, showing a decrease in cell adhesion caused by all three drugs in a dose dependent fashion.
This example illustrates a comparison of the effects of inventive compounds nos. 1605, 1808 and 1906 to inhibit adhesion of U937 cells to activated human umbilical vein endothelial cells (HUVEC). HUVEC cells (4000/ well, seeded 72 hours in advance) were activated with 20 ng/ml of TNF-α for 12 hours. Drug was added to the HUVEC (except for controls) one hour prior to adding TNF-α. U937 cells, preloaded with the fluorescent dye BCECF, were added to each culture well and then washed twice with PBS. Cell adhesion was determined by measuring the fluorescence of adhering U937 cells on a fluorescence plate reader.

[9] = system: vascular cell adhesion molecule-1 (VCAM) in human umbilical vein endothelial cells (HUVEC); assay: cell surface expression of VCAM in TNF-α stimulated HUVEC, flow cytometry (FIG. 6); assay type: cell-based; conditions: TNF-α 20 ng/ml, 20 hrs
Experimental: The HUVEC cells were stimulated with 20 ng/ml TNF-α for 20 hrs and then stained for immunofluorescence using a monoclonal antibody recognizing VCAM, followed by a goat anti-mouse antibody conjugated to phycoerythrin. The cells were analyzed for antibody binding using flow cytometry.
This example illustrates the effects of inventive compounds nos. 1605, 1808 and 1906 to inhibit cell surface expression of vascular cell adhesion molecule-1 (VCAM) in human umbilical vein endothelial cells (HUVEC). The HUVEC cells were stimulated with 20 ng/ml TNF-α for 20 hrs and then stained for immunofluorescence using a monoclonal antibody recognizing VCAM, followed by a goat anti-mouse antibody conjugated to phycoerythrin. The cells were analyzed for antibody binding using flow cytometry.

thymocytes [10] = assay: murine thymocyte proliferation assay co-stimulated by ConA and IL-2 (FIGS. 7A-7E); assay type: cell-based, Balb/C mice; conditions: Mus musculus, FIG. 7A
Description: This example illustrates dose response curves used to generate 50% inhibition concentrations (IC50) for inventive compounds nos. 1410, 1439, 1541, 1553, 1553S, 1560, 1565, 2548R, 2548S and 2562 in a murine thymocyte proliferation assay, co-stimulated by Concanavalin A (ConA) and interleukin-2 alpha (IL-2). ConA, used to activate the T-cell receptor (TCR), along with IL-2 co-stimulation, induces T-cell proliferation and differentiation. Thymuses, obtained from normal, female Balb/C mice, were dissociated and plated into 96-well plates at a density of 2×10^5 cells/well. ConA (0.25 mg/ml) and IL-2 (15 U/ml) were added to the wells. The cells were incubated for 4 days at 37° C. On day 4, the cells were pulsed with tritiated thymidine and incubated for an additional 4 hours. The amount of tritiated thymidine incorporated by the harvested cells was determined in a liquid scintillation counter. Doses of inventive compounds (shown in FIGS. 7A-7E) were added two hours prior to ConA and IL-2 activation. Background counts were less than 200 cpm. Results obtained, illustrate the ability of the inventive compounds to inhibit thymocyte proliferation and activation. In FIG. 7A, inventive compounds nos. […] FIG. 7B presents additional data for compound no. 1410 and 1553S in this assay. […] FIG. 7C reports assay results for inventive compounds nos. 1439, 1541, 1560 and 1565. […] FIGS. 7D and 7E illustrate assay results for inventive compounds nos. 1541, 1553, 1560 and 1565 (FIG. 7D) and 2562, […] (FIG. 7E). As is true of other inventive compounds tested, all these compounds represented in FIGS. 7D and 7E inhibit thymocyte proliferation. […] 1541, 1553, 1560, 1565, 2562, 2548R and 2548S, respectively.

In the case of `Cn1c(=O)n(CCCCCCCC2CO2)c(=O)c2c1ncn2COC(=O)C(C)(C)C` (centres unmarked) [Compound 1409, 1-(8,9-Oxidononyl)-3-methyl-7-methylpivaloylxanthine], the “inhibition of Balb/3T3 proliferation” value (Balb/3T3 cells [1]) is reported as “inhibit Balb/3T3 proliferation” and the cytotoxic effects (Balb/3T3 cells [2]) is reported as “without exhibiting cytotoxic effects”.

`CCCCCCCCC1OC1CCCCCCCCn1c(=O)c2c(ncn2C)n(C)c1=O` (centres unmarked) [Compound 2541, 1-(9,10-Oxidooctadecyl)-3,7-dimethylxanthine] showed an inhibition at 50 µM [3] of 25%.

Work on `Cn1cnc2c1c(=O)n(CCCCCCCCCCC1CO1)c(=O)n2C` (centres unmarked) [Compound 2518, 1-(11,12-Oxidodecyl)-3,7-dimethylxanthine] yielded an IC50 (thymocytes [4]) of 3.4 µM, an IC50 [5] of 16.7 µM and an inhibition at 50 µM [3] of 35%.

For `Cn1ccc(=O)n(CCCCC2CO2)c1=O` (centres unmarked) [Compound 1808, 3-(5,6-Oxidohexyl)-1-methyluracil], the “activity in mixed lymphocyte reaction (immune modulation)” value [6] was “demonstrated activity”, the “potency in mixed lymphocyte reaction compared with PTX” value ([6]; PTX not shown on graph) was “more potent than PTX” and the “inhibition of thymocyte proliferation” value (thymocytes [7]) was “inhibited thymocyte proliferation is a dose-dependent fashion”. For the same molecule, the “inhibition of B-cell proliferation” value (Ramos B-cell tumor line) was “inhibited proliferation”, the “inhibition of PDGF-induced proliferation” value (human stromal cells) was “inhibited PDGF-induced stimulation in a dose response fashion” and the “inhibition of U937 cell adhesion to HUVEC” value [8] was “decrease in cell adhesion induced by TNF-α in a dose dependent fashion”. The “mean fluorescence (VCAM surface expression)” value [9] was “Mean fluorescence levels were decreased” and the IC50 (thymocytes [10]) was 99 µM.
